The target of one experiment is T1, α1a-AR (Homo sapiens, UniProt P35348).
T1 construct: expressed in transfected cells; host or cells: COS cells, pcDNA3 vector, transient DEAE-dextran transfection
T1 sequence (P35348 1-466): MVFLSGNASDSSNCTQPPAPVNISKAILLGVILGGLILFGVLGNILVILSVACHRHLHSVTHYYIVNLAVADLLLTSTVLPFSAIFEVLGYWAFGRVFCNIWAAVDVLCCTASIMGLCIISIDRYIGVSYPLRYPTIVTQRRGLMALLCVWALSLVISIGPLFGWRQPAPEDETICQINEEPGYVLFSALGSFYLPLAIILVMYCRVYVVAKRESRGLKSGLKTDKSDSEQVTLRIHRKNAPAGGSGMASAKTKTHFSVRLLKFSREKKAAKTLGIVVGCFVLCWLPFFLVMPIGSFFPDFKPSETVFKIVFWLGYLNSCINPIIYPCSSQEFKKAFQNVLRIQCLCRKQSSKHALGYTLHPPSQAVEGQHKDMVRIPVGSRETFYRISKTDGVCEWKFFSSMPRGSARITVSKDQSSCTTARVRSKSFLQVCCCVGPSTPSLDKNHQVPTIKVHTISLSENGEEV
The experiment is described as follows: radioligand ([125I]-HEAT) receptor binding assay, COS cell membranes expressing cloned receptor. Particulars: [125I]-HEAT 50 pM, 1 hour room temperature. The source says:
The first assay tested the ability of compounds of Formula I to bind to membrane bound receptors α1a-AR, α1b-AR and α1d-AR.
The DNA sequences of the three cloned human α1-AR subtypes have been published. […] We used published DNA sequence information to design primers for use in RT-PCR amplification of each subtype to obtain cloned cDNAs. Human poly A+ RNA was obtained from commercially available sources and included hippocampus and prostate samples, sources which have been cited in the literature. For the primary screen a radioligand binding assay was used which employed membrane preparations from cells expressing the individual cloned receptor cDNAs. […] Each α1 receptor subtype was cloned from poly A+ RNA by the standard method of reverse transcription-polymerase chain reaction (RT-PCR). The following sources of polyA+ RNA were used for the cloning of the α1 receptor subtypes: α1a-AR, human hippocampus and prostate, α1b-AR, human hippocampus, α1d-AR, human hippocampus. The resulting cDNAs were cloned into the pcDNA3 mammalian expression vector (Invitrogen Corp., San Diego Calif.). Each DNA was sequenced for verification and to detect any possible mutations introduced during the amplification process. Any deviation in sequence from the published consensus for each receptor subtype was corrected by site-directed mutagenesis.
The three α1-AR subtypes (a, b, d) were transfected into COS cells using a standard DEAE-dextran procedure with a chloroquine shock. […] Approximately 72 hours post-transfection, the cells were harvested and COS membranes were prepared. Transfected COS cells from 25 plates (100 mm) were scraped and suspended in 15 mL of TE buffer (50 mM Tris-HCl, 5 mM EDTA, pH 7.4). The suspension was disrupted with a homogenizer. It was then centrifuged at 1000× g for 10 minutes at 4° C. […] The pellet was resuspended in 5 mL TNE buffer (50 mM Tris-HCl, 5 mM EDTA, 150 mM NaCl, pH 7.4). The resulting membrane preparation was aliquoted and stored at −70° C. The protein concentration was determined following membrane solubilization with TritonX-100.
The ability of each compound to bind to each of the α1-AR subtypes was assessed in a receptor binding assay. […] The plate was incubated for 1 hour at room temperature and the reaction mixtures were filtered through a Packard GF/C Unifilter filter plate. The filter plate was dried for 1 hour in a vacuum oven. Scintillation fluid ([…]) was added to each well, and the filter plate was counted in a Packard Topcount scintillation counter. Data was analyzed using GraphPad Prism software.

The next experiment concerns rat prostatic tissue. The experiment is described as follows: norepinephrine-induced contractile response of rat prostatic tissue strips. It counts as cell-based. Particulars: norepinephrine-induced contraction, Long Evans rat prostatic strips, 1 gram tension, 32° C.; read-out: IC50 of inhibition of contractile response in prostate tissue. The source says:
(§1) The contractile responses of rat prostatic tissue and rat aorta tissues were examined in the presence and absence of antagonist compounds. As an indication of the selectivity of antagonism, test compound effects on vascular smooth muscle contractility (α1b-AR and α1d-AR) were compared to the effects on prostatic smooth muscle (α1a-AR). Strips of prostatic tissue and aortic rings were obtained from Long Evans derived male rats weighing 275 grams and sacrificed by cervical dislocation. The prostate tissue was placed under 1 gram tension in a 10 ml bath containing phosphate buffered saline pH 7.4 at 32° C. and isometric tension was measured with force transducers. The aortic tissue was placed under 2 grams tension in a 10 ml bath containing phosphate buffered saline pH 7.4 at 37° C.

The subject of the next experiment is rat aorta tissues. The experiment is described as follows: norepinephrine-induced contractile response of rat aortic rings. The experiment is classed as cell-based. Particulars: norepinephrine-induced contraction, Long Evans rat aortic rings, 2 grams tension, 37° C.; read-out: IC50 of inhibition of contractile response in aortic tissue.
Text: as §1

For the molecule `Cc1ccc(N2C(=O)c3ccc(C(=O)NCC(O)CN4CCN(c5ccccc5OC(C)C)CC4)cc3C2=O)cc1C` (centres unmarked) [Compound 39], on α1a-AR, the 50% inhibitory concentration (IC50) was 0.44 nM. For `CC(C)Oc1ccccc1N1CCN(CC(O)CNC(=O)c2ccc3c(c2)C(=O)N(c2ccc(Cl)c(Cl)c2)C3=O)CC1` (centres unmarked) [Compound 56], on α1a-AR, the half-inhibitory concentration (IC50) came out at 0.81 nM. On α1a-AR, `Cc1ccc(N2C(=O)c3ccc(C(=O)NCC(O)CN4CCN(c5ccccc5OC(C)C)CC4)cc3C2=O)cc1` (centres unmarked) [Compound 52] gave an IC50 of 0.66 nM. The molecule `CC(C)Oc1ccccc1N1CCN(CC(O)CNC(=O)c2ccc3c(c2)C(=O)N(c2ccc(O)cc2)C3=O)CC1` (centres unmarked) [Compound 58] registered a half-maximal inhibitory concentration (IC50) at α1a-AR of 0.88 nM.

As to `CC(C)Oc1ccccc1N1CCN(CCCNC(=O)c2ccc3c(c2)C(=O)N(c2ccc(O)cc2)C3=O)CC1` [Compound 47], the IC50 at α1a-AR was found to be 0.2 nM. `COC(CNC(=O)c1ccc2c(c1)C(=O)N(c1cccc(F)c1)C2=O)CN1CCN(c2ccccc2OC(C)C)CC1` (centres unmarked) [Compound 14] registered a concentration for half-maximal inhibition (IC50) at α1a-AR of 7 nM. At α1a-AR, `CC(C)Oc1ccccc1N1CCN(CC(O)CNC(=O)c2ccc3c(c2)C(=O)N(c2cccnc2)C3=O)CC1` (centres unmarked) [Compound 11] displayed an IC50 of 1.9 nM. In turn, `Cc1cccc(N2C(=O)c3ccc(C(=O)NCC(O)CN4CCN(c5ccccc5OC(C)C)CC4)cc3C2=O)c1` (centres unmarked) [Compound 49] showed a concentration for half-maximal inhibition (IC50) on α1a-AR of 0.9 nM.

Turning to `CCOc1ccccc1N1CCN(CC(O)CNC(=O)c2ccc3c(c2)C(=O)N(c2cccc(F)c2)C3=O)CC1` (centres unmarked) [Compound 42], on α1a-AR, the IC50 stood at 4.25 nM. At α1a-AR, `COc1ccccc1N1CCN(CC(O)CNC(=O)c2ccc3c(c2)C(=O)N(c2cccc(F)c2)C3=O)CC1` (centres unmarked) [Compound 43] displayed an IC50 of 22 nM. `COc1ccc(N2C(=O)c3ccc(C(=O)NCC(O)CN4CCN(c5ccccc5OC(C)C)CC4)cc3C2=O)cc1OC` (centres unmarked) [Compound 38] showed an IC50 on α1a-AR of 0.93 nM. `CC(=O)c1ccc(N2C(=O)c3ccc(C(=O)NCC(O)CN4CCN(c5ccccc5OC(C)C)CC4)cc3C2=O)cc1` (centres unmarked) [Compound 48] returned a half-inhibitory concentration (IC50) at α1a-AR of 1 nM. For `CC(C)Oc1ccccc1N1CCN(CC(O)CNC(=O)c2ccc3c(c2)C(=O)N(c2cccc(F)c2)C3=O)CC1` (racemic) [Compound 4], the values for the IC50 with rat prostatic tissue, in the experiment on rat aorta tissues and at α1a-AR were 640 nM, 63200 nM and 1.5 nM, respectively. With `CC(C)Oc1ccccc1N1CCN(C[C@@H](O)CNC(=O)c2ccc3c(c2)C(=O)N(c2ccc(N(C)C)cc2)C3=O)CC1` [Compound 21, (S)-2-[4-(dimethylamino)phenyl]-2,3-dihydro-N-[2-hydroxy-3-[4-[2-(1-methylethoxy)phenyl]-1-piperazinyl]propyl]-1,3-dioxo-1H-isoindole-5-carboxamide], the IC50 with rat prostatic tissue amounted to 810 nM; with rat aorta tissues, 22400 nM; on α1a-AR, 0.36 nM. On the same counts, the results for `CC(C)Oc1ccccc1N1CCN(CCCNC(=O)c2ccc3c(c2)C(=O)N(c2cccc(F)c2)C3=O)CC1` [Compound 6] are 130 nM, 2800 nM and 0.41 nM. With `Cc1ccc(N2C(=O)c3ccc(C(=O)NCCCN4CCN(c5ccccc5OC(C)C)CC4)cc3C2=O)cc1` [Compound 46], the IC50 at α1a-AR amounted to 0.1 nM. The same measure, in the same setting: as for `CC(C)Oc1ccccc1N1CCN(CC(O)CNC(=O)c2ccc3c(c2)C(=O)N(c2cccc(Cl)c2)C3=O)CC1` (centres unmarked) [Compound 54], the figure is 0.73 nM; as for `CC(C)Oc1ccccc1N1CCN(CC(O)CNC(=O)c2ccc3c(c2)C(=O)N(c2cc(F)cc(F)c2)C3=O)CC1` (centres unmarked) [Compound 29], 0.89 nM. Take `COc1ccc(N2C(=O)c3ccc(C(=O)NCCCN4CCN(c5ccccc5OC(C)C)CC4)cc3C2=O)cc1` [Compound 45]: the IC50 was determined as 40 nM in the experiment with rat prostatic tissue, 3300 nM in the experiment on rat aorta tissues and 0.11 nM at α1a-AR.

As to `CC(C)Oc1ccccc1N1CCN(C[C@@H](O)CNC(=O)c2ccc3c(c2)C(=O)N(c2cccc(F)c2)C3=O)CC1` [Compound 9], the half-maximal inhibitory concentration (IC50) is 230 nM with rat prostatic tissue, 6500 nM in the experiment with rat aorta tissues and 1 nM at α1a-AR. Consider `CC(C)Oc1ccccc1N1CCN(CC(O)CNC(=O)c2ccc3c(c2)C(=O)N(c2ccc(O)cc2)C3=O)CC1` (single isomer, unassigned) [Compound 35], for which the 50% inhibitory concentration (IC50) at α1a-AR was found to be 0.46 nM. The molecule `CC(C)Oc1ccccc1N1CCN(CC(O)CNC(=O)c2ccc3c(c2)C(=O)N(c2ccc(C(C)(C)C)cc2)C3=O)CC1` (centres unmarked) [Compound 41] returned a concentration for half-maximal inhibition (IC50) at α1a-AR of 3.5 nM.

Regarding `CC(C)Oc1ccccc1N1CCN(CC(O)CNC(=O)c2ccc3c(c2)C(=O)N(c2ccccc2)C3=O)CC1` (centres unmarked) [Compound 51], at α1a-AR, the 50% inhibitory concentration (IC50) turned out to be 0.9 nM.

For the molecule `CC(C)Oc1ccccc1N1CCN(CC(O)CNC(=O)c2ccc3c(c2)C(=O)N(c2cccc(C(F)(F)F)c2)C3=O)CC1` (centres unmarked) [Compound 57], the 50% inhibitory concentration (IC50) at α1a-AR is 0.74 nM. `CC(C)Oc1ccccc1N1CCN(CC(O)CNC(=O)c2ccc3c(c2)C(=O)N(c2ccc(Cl)cc2)C3=O)CC1` (centres unmarked) [Compound 53]: at α1a-AR, the IC50 amounted to 0.95 nM. In turn, `CC(C)Oc1ccccc1N1CCN(CC(O)CNC(=O)c2ccc3c(c2)C(=O)N(c2ccc(F)cc2)C3=O)CC1` (centres unmarked) [Compound 50] had an IC50 at α1a-AR of 1.5 nM. At α1a-AR, `CC(C)Oc1ccccc1N1CCN(CCCNC(=O)c2ccc3c(c2)C(=O)N(c2ccc(N(C)C)cc2)C3=O)CC1` [Compound 44] registered an IC50 of 0.18 nM. Still for that read-out and setting: as for `CC(C)Oc1ccccc1N1CCN(C[C@H](O)CNC(=O)c2ccc3c(c2)C(=O)N(c2cccc(F)c2)C3=O)CC1` [Compound 27], the figure is 8 nM.

In the case of `CC(C)Oc1ccccc1N1CCN(CC(O)CNC(=O)c2ccc3c(c2)C(=O)N(c2ccc(N(C)C)cc2)C3=O)CC1` (centres unmarked) [Compound 28], the IC50 on α1a-AR turned out to be 0.8 nM. As to `COc1ccccc1N1C(=O)c2ccc(C(=O)NCC(O)CN3CCN(c4ccccc4OC(C)C)CC3)cc2C1=O` (centres unmarked) [Compound 26], the half-maximal inhibitory concentration (IC50) on α1a-AR was 1.6 nM. On the same count and under the same terms, as for `CC(C)Oc1ccccc1N1CCN(CC(O)CNC(=O)c2ccc3c(c2)C(=O)N(c2ccc([N+](=O)[O-])cc2)C3=O)CC1` (centres unmarked) [Compound 30], the figure is 1.8 nM.

The values above are taken from patent US6780994B2, “Phthalimido arylpiperazines useful in the treatment of benign prostatic hyperplasia” (Ortho-McNeil Pharmaceutical, Inc., priority 1998, dated 2004).
